According to US10828267B2, “Therapeutic regimens and methods for improving visual function in visual disorders associated with an endogenous retinoid deficiency” (RETINAGENIX THERAPEUTICS, INC., priority 2012, dated 2020):

Assay: Interim pharmacokinetics, multiple-dose study (Example 5)
Assay type: in vivo, human
Method: Interim Pharmacokinetic results of the study were derived from plasma concentrations of 9-cis-retinyl acetate and its metabolites, measured throughout the study period at prescribed time points. The scope of this interim PK analysis encompasses samples from Cohort 1 including the placebo (n=2), 40 mg/m^2 (n=6) and 60 mg/m^2 (n=2) dose groups obtained in treatment cycles 1, 2 and 3.
The plasma samples were analyzed by liquid chromatography-mass spectrometry-mass spectrometry (LC/MS/MS) for parent drug and potential metabolites. Noncompartmental (NCA) pharmacokinetic (PK) parameters such as AUC were obtained using the WinNonlin software with observational determination of Cmax, tmax, and duration of concentrations above baseline (TD).

For `CC(=O)OC/C=C(C)/C=C/C=C(C)\C=C\C1=C(C)CCCC1(C)C` [9-cis-Retinyl acetate, (2E, 4E, 6Z, 8E)-3,7-dimethyl-9-(2,6,6-trimethylcyclohex-1-en-1-yl) nona-2,4,6,8-tetraen-1-yl acetate], the “accumulation of 9-cis-retinol and retinyl ester metabolites on multiple-dosing” value (40 mg/m^2, repeated seven day cycles) was “slight to modest accumulation”, the “accumulation of metabolites from cycle to cycle” value (40 mg/m^2, Cycles 1, 2 and 3) was “no accumulation being observed from cycle to cycle” and the plasma concentrations (Cohort 1, 40 and 60 mg/m^2, cycles 1-3) was “low and transient”.
